O=Cc1ccc(C(=O)O)cc1
solubility (mole fraction)
Details	283.15 K	288.15 K	293.15 K	298.15 K	303.15 K	308.15 K	313.15 K	318.15 K	323.15 K
in NMP	0.0654	0.0767	0.0897	0.104	0.121	0.14	0.161	0.184	0.211
in ethanol	0.00815	0.00973	0.0115	0.0134	0.0155	0.0181	0.0211	0.0246	0.028
in isopropanol	0.00498	0.00612	0.00727	0.00867	0.0103	0.0121	0.014	0.0163	0.0185
in methanol	0.00781	0.00899	0.00999	0.0115	0.0129	0.0144	0.0163	0.0178	0.02
in water	2.15e-05	2.83e-05	3.61e-05	4.64e-05	5.91e-05	7.67e-05	9.57e-05	0.00012	0.000148
